Assay results as given in article PMC7248705, “A Pharmacokinetic and Pharmacodynamic Evaluation of the Anti-Hepatocellular Carcinoma Compound 4-N-Carbobenzoxy-gemcitabine (Cbz-dFdC)” (Molecules, 2020).
Read-outs that look alike come from different tables or passages of the source.

Assays:
[1] = parameters: method as in PMID 22099048; settings: cited from earlier work
cytidine kinase = tested on: cytidine kinase; parameters: method as in PMID 1718594, PMID 1740680, PMID 8033147, PMID 12127861, PMID 23230131; settings: after intravenous injection; cited from earlier work
[2] = parameters: method as in PMID 22099048; settings: humans, after intravenous injection; cited from earlier work
human HepG2 cell line = assay: CCK-8 tumor cell growth inhibition assay; format: cell-based; settings: HepG2, CCK-8, concentration-dependent
Protocol: (§1) The cells were cultured on a 96-well plate for 4 h for each well. Then, dimethyl sulfoxide solution containing 0.1–100 mM of Cbz-dFdC and dFdC was diluted 1000 times with the medium before administration. A total of 200 uL of medium containing Cbz-dFdC and dFdC was added per well (n = 6). The medium with drugs was discarded, and 10% CCK-8 solution was added. Then, the absorbance value was read at a wavelength of 450 nm after incubation at 37 °C, for 30 min. The drug concentration of Cbz-dFdC and dFdC in cell were determined by a previously established method.

HepG2 cells = assay: Cell uptake in HepG2 cells; format: cell-based, human
Protocol: as §1

[3] = Plasma pharmacokinetics in vivo; settings: SD, rat, rats
Protocol: SD rats (n = 6) were intragastrically administered Cbz-dFdC (22 mg/kg) and intravenously injected with dFdC (15 mg/kg), and 150 μL blood samples were collected from the retro-orbital route in the right eye at 0, 5, 10, 20, and 30 min and at 1, 2, 4, 6, 12, 24, and 48 h, using heparinized tubes. Without delay, the blood was directly centrifuged at 8000× g at 4 °C for 5 min. Then, the supernatant plasma was collected and immediately extracted using a previously established method or was frozen at −80 °C until further analysis.

[4] = parameters: method as in PMID 22099048; settings: rats, after intravenous injection; cited from earlier work
[5] = Tissue distribution (liver, kidney, intestine); format: in vivo, SD rats; settings: rats; drug concentration in tissue lower than plasma concentration
Protocol: In order to investigate the drug distribution in different tissues and the relationship between CES1 activity and tissue concentration, we conducted tissue distribution experiments. The SD rats were divided into six groups (n = 6 for each group). After a single intragastric administration of Cbz-dFdC (22 mg/kg) and a single injected administration of dFdC (15 mg/kg), the SD rats were sacrificed at 0.5 h, 1.5 h, and 4 h, and the liver, kidney, and intestine were collected. The liver was perfused with ice-cold normal saline and then removed, followed by ice-cold normal saline cleaning. The kidney and intestine were directly removed and then washed with ice-cold normal saline. All of the above operations were carried out on ice, and the removed tissue was stored in an ice bath. The liver, kidney, and intestine were cut and crushed, homogenized with an appropriate amount of phosphate buffer by a homogenizer, and then diluted 5 times with ice-cold PBS buffer (in an ice bath). The tissue homogenates were determined with a BCA kit for protein concentration, a CES1 kit for CES1 activity, and UFLC–MS/MS for drug tissue concentration after pretreatment; the pretreatment method was reported previously.

[6] = substrate: O=C(Nc1ccn([C@@H]2O[C@H](CO)[C@@H](O)C2(F)F)c(=O)n1)OCc1ccccc1; assay: Enzymatic kinetics in vitro, human CES1 recombinase; format: in vitro ADME; settings: other: Human CES1 Recombinase, 37 °C, 30 min, 5–200 μM Cbz-dFdC
Protocol: The SD rats without any treatment were sacrificed after adapting to the environment. Blank blood, the liver, the kidney, and the intestine were collected and treated as described in Section 4.4. Part of the homogenate was removed for centrifugation for 20 min at 9000× g at 4 °C, and the supernatant was obtained as tissue S9. The tissue homogenate and S9 were diluted to […] after the protein concentration was determined by the BCA kit (Abcam, Cambridge, MA, USA). Each matrix consisted of 45 uL of the matrix mixed with 5 uL of the drug dissolved in normal saline solution for about 3 min, followed by incubation at 37 °C in a water bath. Then, acetonitrile containing the internal standard was added to terminate the reaction. Human tissue S9 and human CES1 recombinase purchased from the Ruid Liver Disease Research Co., Ltd. (Shanghai, China) were incubated under the same conditions. An enzyme kinetic study was obtained from the matrix following incubation at 37 °C for 30 min with 5, 10, 20, 50, 100, or 200 μM of Cbz-dFdC. We estimated the parameters and simulated curves according to the Eadie–Hofstee method.

[7] = iv, plasma, after i.v. dFdC 15 mg/kg
[8] = plasma, 15 mg/kg, after dFdC intravenous injection
[9] = plasma, oral, 22 mg/kg, dFdC metabolized from Cbz-dFdC after i.g. Cbz-dFdC
[10] = po, plasma analyte after i.g. Cbz-dFdC 22 mg/kg

Which “toxic effects on the gastrointestinal tract” value [1] does the source give for Nc1ccn([C@@H]2O[C@H](CO)[C@@H](O)C2(F)F)c(=O)n1 [dFdC, Gemcitabine] here?
The value was “serious toxic effects on the gastrointestinal tract”.

And the “active monophosphate, diphosphate and triphosphate metabolites, share of the dose” value (cytidine kinase)?
Its value is “about 10%”.

And the half-life [2]?
Its half-life is 0.2 h.

And the “cytotoxicity / tumor cell growth inhibition” value (human HepG2 cell line)?
Its value is “better than that of Cbz-dFdC”.

What about the “intracellular concentration (cell uptake)” value (HepG2 cells) of the same molecule?
Its value is “higher than that of dFdC, after the Cbz-dFdC treatment”.

And the AUC(0-inf) [3, 7]?
The AUC(0-inf) was 22700 ng·h/mL.

And the Cmax [3, 7]?
Its Cmax is 14100 ng/mL.

And the Tmax [3, 7]?
The Tmax was 0.083 h.

And the half-life [3, 7]?
Its half-life is 10.6 ± 1.86 h.

What about the concentration at 12 h [3, 8] of the same molecule?
The concentration at 12 h was about 200 ng/mL.

What about the concentration at 48 h [3, 8] of the same molecule?
Its concentration at 48 h is about 40 ng/mL.

And the concentration at 24 h ([3]; plasma, intravenous, after i.v. dFdC 15 mg/kg)?
Its concentration at 24 h is about 130 ng/mL.

What about the C0 ([3]; plasma, iv, after i.v. dFdC 15 mg/kg, read-out: initial plasma concentration) of the same molecule?
The C0 was about 15000 ng/mL.

And the concentration at 24 h ([3]; plasma, oral, 22 mg/kg, after i.g. Cbz-dFdC)?
The concentration at 24 h was about 300 ng/mL.

What about the concentration at 12 h [3, 9] of the same molecule?
Its concentration at 12 h is about 600 ng/mL.

And the concentration at 48 h [3, 9]?
Its concentration at 48 h is about 130 ng/mL.

What about the AUC(0-inf) [3, 10] of the same molecule?
Its AUC(0-inf) is 27500 ng·h/mL.

And the Cmax [3, 10]?
Its Cmax is 1660 ± 432 ng/mL.

And the Tmax [3, 10]?
Its Tmax is 4 h.

What about the half-life [3, 10] of the same molecule?
Its half-life is 10.4 ± 0.91 h.

And the half-life [4]?
Its half-life is 2.0 h.

And the tissue penetration [5]?
The tissue penetration was “weak tissue penetration”.

B1: Human CES1 Recombinase (Homo sapiens) (protein)
chain: GHPSSPPVVDTVHGKVLGKFVSLEGFAQPVAIFLGIPFAKPPLGPLRFTPPQPAEPWSFVKNATSYPPMCTQDPKAGQLLSELFTNRKENIPLKLSEDCLYLNIYTPADLTKKNRLPVMVWIHGGGLMVGAASTYDGLALAAHENVVVVTIQYRLGIWGFFSTGDEHSRGNWGHLDQVAALRWVQDNIASFGGNPGSVTIFGESAGGESVSVLVLSPLAKNLFHRAISESGVALTSVLVKKGDVKPLAEQIAITAGCKTTTSAVMVHCLRQKTEEELLETTLKMKFLSLDLQGDPRESQPLLGTVIDGMLLLKTPEELQAERNFHTVPYMVGINKQEFGWLIPMQLMSYPLSEGQLDQKTAMSLLWKSYPLVCIAKELIPEATEKYLGGTDDTVKKKDLFLDLIADVMFGVPSVIVARNHRDAGAPTYMYEFQYRPSFSSDMKPKTVIGDHGDELFSVFGAPFLKEGASEEEIRLSKMVMKFWANFARNGNPNGEGLPHWPEYNQKEGYLQIGANTQAAQKLKDKEVAFWTNLFAKKAVEKPPQTEHIEL
notes: purchased Ruid Liver Disease Research Co., Ltd. (Shanghai, China)
With B1 as the molecule, how does the Km ([6]; appearance of dFdC) read?
Its Km is 107.2 µM.

And the Vmax/Km ([6]; appearance of dFdC)?
Its Vmax/Km is 36500 µL/min/mg.

And the Km ([6]; disappearance of Cbz-dFdC)?
The Km was 258.6 µM.

And the Vmax/Km ([6]; disappearance of Cbz-dFdC)?
Its Vmax/Km is 72700 µL/min/mg.
